How the values were obtained:
[1] = molecular target: T1, CFTR in F508del/F508del primary CF hBE cells (Homo sapiens, UniProt P13569, DEL508-508); assay: Ussing chamber electrophysiology assay of CFTR potentiation in F508del/F508del CF bronchial epithelial cells (27° C.); format: cell-based
T1 construct: Primary cystic fibrosis human bronchial epithelial (CF hBE) cells were expanded and cultured; endogenous in cells; host or cells: primary CF human bronchial epithelial cells, genotype F508del/F508del
T1 sequence (P13569 with tags, fused parts or gaps DEL508-508): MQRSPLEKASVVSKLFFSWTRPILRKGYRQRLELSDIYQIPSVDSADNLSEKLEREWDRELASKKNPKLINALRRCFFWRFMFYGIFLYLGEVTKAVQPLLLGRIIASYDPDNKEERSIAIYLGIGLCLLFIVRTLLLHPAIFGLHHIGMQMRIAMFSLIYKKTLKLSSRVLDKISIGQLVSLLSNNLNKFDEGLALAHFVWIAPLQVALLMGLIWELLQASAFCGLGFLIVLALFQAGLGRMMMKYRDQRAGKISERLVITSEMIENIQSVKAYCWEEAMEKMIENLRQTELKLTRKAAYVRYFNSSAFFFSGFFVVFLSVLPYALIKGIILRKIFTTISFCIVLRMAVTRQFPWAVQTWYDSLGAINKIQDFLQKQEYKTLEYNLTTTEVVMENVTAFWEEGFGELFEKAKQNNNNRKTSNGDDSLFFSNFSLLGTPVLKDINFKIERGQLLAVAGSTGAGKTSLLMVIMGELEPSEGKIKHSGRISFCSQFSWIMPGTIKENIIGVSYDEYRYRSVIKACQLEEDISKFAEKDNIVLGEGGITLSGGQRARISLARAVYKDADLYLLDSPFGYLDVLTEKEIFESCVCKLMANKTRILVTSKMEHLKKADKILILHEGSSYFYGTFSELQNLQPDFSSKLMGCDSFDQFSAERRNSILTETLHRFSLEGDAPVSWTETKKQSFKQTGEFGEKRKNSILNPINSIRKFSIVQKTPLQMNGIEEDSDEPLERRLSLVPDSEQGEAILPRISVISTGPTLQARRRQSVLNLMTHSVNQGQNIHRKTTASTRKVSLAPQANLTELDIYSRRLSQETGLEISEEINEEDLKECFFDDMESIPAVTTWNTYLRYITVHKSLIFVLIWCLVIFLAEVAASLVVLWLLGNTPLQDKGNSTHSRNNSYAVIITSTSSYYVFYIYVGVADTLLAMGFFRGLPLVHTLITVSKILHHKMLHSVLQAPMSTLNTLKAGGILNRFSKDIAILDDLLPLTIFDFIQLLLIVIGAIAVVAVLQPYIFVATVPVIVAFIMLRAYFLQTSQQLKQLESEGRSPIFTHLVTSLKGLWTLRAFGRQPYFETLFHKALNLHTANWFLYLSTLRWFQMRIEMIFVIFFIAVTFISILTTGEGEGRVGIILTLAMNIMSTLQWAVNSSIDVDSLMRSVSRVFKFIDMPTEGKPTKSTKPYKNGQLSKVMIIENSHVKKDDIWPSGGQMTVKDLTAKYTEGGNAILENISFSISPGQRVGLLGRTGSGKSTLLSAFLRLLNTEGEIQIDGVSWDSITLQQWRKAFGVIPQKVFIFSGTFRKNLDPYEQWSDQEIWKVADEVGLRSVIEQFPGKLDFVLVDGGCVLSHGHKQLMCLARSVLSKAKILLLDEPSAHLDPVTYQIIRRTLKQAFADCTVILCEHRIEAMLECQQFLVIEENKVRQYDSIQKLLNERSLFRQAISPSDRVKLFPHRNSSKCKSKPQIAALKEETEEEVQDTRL
How it was run: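 Well-differentiated primary CF hBE cells (>30 days air/liquid interface) in Ussing chambers, HEPES saline both sides, voltage clamped to zero. Amiloride 30 uM, forskolin 10 uM, four rising compound concentrations, then CFTRinh-172 20 uM added at 20-25 min intervals. Short-circuit current scaled to DMSO (0%) and a positive control potentiator maximum (100%).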

[2] = molecular target: T2, recombinant F508del V470 CFTR in Fischer rat thyroid (FRT) cells (Homo sapiens, UniProt P13569, DEL508-508); assay: FRT ion flux assay of F508del CFTR potentiation; format: cell-based; settings: FRT cells expressing F508del V470 CFTR, forskolin 20 uM, 27° C. pre-incubation
T2 construct: expressed in transfected cells
T2 sequence (P13569 with tags, fused parts or gaps DEL508-508): as above
How it was run: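 FRT cells co-expressing F508del V470 CFTR and halide-sensitive YFP, temperature-corrected at 27° C for 16-24 h, then treated 30 min with compound plus 20 uM forskolin. Iodide addition quenches YFP, read after ~21 s; ratio scaled to DMSO (0%) and positive control potentiator (100%).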

Compound | EC50 [1] [nM] | EC50 [2] [nM]
N#Cc1c(-c2ccc(Cl)cc2)c2c(N)ncnc2n1Cc1cn(-c2ccccc2F)nn1 [Example 26, 4-Amino-5-(4-chlorophenyl)-7-{[1-(2-fluorophenyl)-1H-1,2,3-triazol-4-yl]methyl}-7H-pyrrolo[2,3-d]pyrimidine-6-carbonitrile] | 35.7 | 130
N#Cc1c(-c2cnc(C(F)(F)F)nc2)c2c(N)ncnc2n1Cc1cnn(-c2ccc(F)cc2F)c1 [Example 29, 4-Amino-7-{[1-(2,4-difluorophenyl)-1H-pyrazol-4-yl]methyl}-5-[2-(trifluoromethyl)pyrimidin-5-yl]-7H-pyrrolo[2,3-d]pyrimidine-6-carbonitrile] | 2.24 | 2.33
N#Cc1c(-c2cnc(C(F)F)nc2)c2c(N)ncnc2n1Cc1cnn(-c2ccccc2F)c1 [Example 30, 4-Amino-5-[2-(difluoromethyl)pyrimidin-5-yl]-7-{[1-(2-fluorophenyl)-1H-pyrazol-4-yl]methyl}-7H-pyrrolo[2,3-d]pyrimidine-6-carbonitrile] | 2.03 | 0.59
N#Cc1c(-c2cnc(C(F)(F)F)nc2)c2c(N)ncnc2n1Cc1cn(-c2ccccc2F)nn1 [Example 37] | 16.3 | 13.5
Nc1ncnc2c1c(-c1cnc(C(F)(F)F)nc1)c(Br)n2Cc1cnn(-c2ccccc2F)c1 [Example 40, 6-bromo-7-{[1-(2-fluorophenyl)-1H-pyrazol-4-yl]methyl}-5-[2-(trifluoromethyl)pyrimidin-5-yl]-7H-pyrrolo[2,3-d]pyrimidin-4-amine] | 1.3 | 2.18
Nc1ncnc2c1c(-c1cnc(C(F)(F)F)nc1)cn2Cc1cnn(-c2ccccc2F)c1 [Example 57, 7-((1-(2-fluorophenyl)-1H-pyrazol-4-yl)methyl)-5-(2-(trifluoromethyl)pyrimidin-5-yl)-7H-pyrrolo[2,3-d]pyrimidin-4-amine] | 65.9 | 28.8
CC(c1cn(-c2ccccc2F)nn1)n1cc(-c2ccc(Cl)cc2)c2c(N)ncnc21 (stereo not drawn) [Example 58, 5-(4-Chlorophenyl)-7-{1-[1-(2-fluorophenyl)-1H-1,2,3-triazol-4-yl]ethyl}-7H-pyrrolo[2,3-d]pyrimidin-4-amine] | 28.9 | 232
COc1ccc(-c2cn(C(C)c3cnc(-c4ccccc4F)[nH]3)c3ncnc(N)c23)c(F)c1 (stereo not drawn) [Example 59, 5-(2-Fluoro-4-methoxyphenyl)-7-{1-[2-(2-fluorophenyl)-1H-imidazol-5-yl]ethyl}-7H-pyrrolo[2,3-d]pyrimidin-4-amine] | 32 | 195
CC(c1cnc(-c2ccccc2F)[nH]1)n1cc(-c2cc[nH]n2)c2c(N)ncnc21 (stereo not drawn) [Example 60, 7-{1-[2-(2-Fluorophenyl)-1H-imidazol-5-yl]ethyl}-5-(1H-pyrazol-3-yl)-7H-pyrrolo[2,3-d]pyrimidin-4-amine] | 80 | 45.3
CC(c1cnc(-c2ccccc2F)[nH]1)n1cc(-c2ccc(C(F)(F)F)nc2)c2c(N)ncnc21 (stereo not drawn) [Example 64, 7-{1-[2-(2-Fluorophenyl)-1H-imidazol-5-yl]ethyl}-5-[6-(trifluoromethyl)pyridin-3-yl]-7H-pyrrolo[2,3-d]pyrimidin-4-amine] | 80.3 | 80
CC(c1cnc(-c2ccccc2F)[nH]1)n1cc(-c2ccc3[nH]ncc3c2)c2c(N)ncnc21 (stereo not drawn) [Example 66, 7-{1-[2-(2-Fluorophenyl)-1H-imidazol-5-yl]ethyl}-5-(1H-indazol-5-yl)-7H-pyrrolo[2,3-d]pyrimidin-4-amine] | 1320 | 573
CC(c1cnc(-c2ccccc2F)[nH]1)n1cc(-c2cnc(N(C)C)nc2)c2c(N)ncnc21 (stereo not drawn) [Example 67, 5-[2-(Dimethylamino)pyrimidin-5-yl]-7-{1-[2-(2-fluorophenyl)-1H-imidazol-5-yl]ethyl}-7H-pyrrolo[2,3-d]pyrimidin-4-amine] | 142 | 54.6
